Earlier results in patent US9227958B2, “Amorphous and crystalline forms of aprepitant and processes for the preparation thereof” (Glenmark Pharmaceuticals Limited, priority 2006, dated 2016).

Key:
Settings in all cases: stated in words, background
[1] = target: human substance P/neurokinin 1 (NK1) receptors (Homo sapiens, UniProt P25103)
dopamine receptors = system: dopamine receptors
corticosteroid receptors = system: corticosteroid receptors
[2] = target: T1, serotonin (5-HT3) receptors (Homo sapiens, UniProt P46098)
T1 sequence (P46098 24-478): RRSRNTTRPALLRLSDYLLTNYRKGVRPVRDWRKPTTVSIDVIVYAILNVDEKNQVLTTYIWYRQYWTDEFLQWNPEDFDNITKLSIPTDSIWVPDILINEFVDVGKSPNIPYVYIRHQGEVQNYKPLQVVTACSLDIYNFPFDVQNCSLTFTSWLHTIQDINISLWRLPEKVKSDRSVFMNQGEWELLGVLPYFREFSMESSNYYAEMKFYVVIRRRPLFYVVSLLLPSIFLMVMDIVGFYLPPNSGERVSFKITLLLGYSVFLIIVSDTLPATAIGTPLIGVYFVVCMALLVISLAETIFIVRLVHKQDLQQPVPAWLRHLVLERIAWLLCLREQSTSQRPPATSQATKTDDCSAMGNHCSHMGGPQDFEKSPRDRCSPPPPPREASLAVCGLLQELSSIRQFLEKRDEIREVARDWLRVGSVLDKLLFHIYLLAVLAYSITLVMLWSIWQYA

Chain of human substance P/neurokinin 1 (NK1) receptors (P25103 whole entry): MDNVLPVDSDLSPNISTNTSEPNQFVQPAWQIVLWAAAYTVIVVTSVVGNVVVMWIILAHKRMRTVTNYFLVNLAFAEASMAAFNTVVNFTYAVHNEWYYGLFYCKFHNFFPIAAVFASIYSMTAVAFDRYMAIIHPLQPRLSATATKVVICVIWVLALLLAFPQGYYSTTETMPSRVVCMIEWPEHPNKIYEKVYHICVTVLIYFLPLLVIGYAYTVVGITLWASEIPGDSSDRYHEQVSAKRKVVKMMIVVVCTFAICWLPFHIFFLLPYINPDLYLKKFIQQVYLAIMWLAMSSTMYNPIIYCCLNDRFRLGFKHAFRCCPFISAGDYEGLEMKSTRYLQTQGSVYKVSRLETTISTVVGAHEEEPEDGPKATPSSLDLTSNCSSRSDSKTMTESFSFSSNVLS

affinity / antagonism at human substance P/neurokinin 1 (NK1) receptors [1]: selective high-affinity antagonist
affinity for dopamine receptors (dopamine receptors): little or no affinity
affinity for corticosteroid receptors (corticosteroid receptors): little or no affinity
affinity for serotonin (5-HT3) receptors [2]: little or no affinity
Compound: C[C@@H](O[C@H]1OCCN(Cc2n[nH]c(=O)[nH]2)[C@H]1c1ccc(F)cc1)c1cc(C(F)(F)F)cc(C(F)(F)F)c1 [Aprepitant]
